Legend:
rats = assay: Test A: administration by infusion (rats), recovery after termination of infusion; format: in vivo, rat (Sprague-Dawley)
Protocol: (§1) Test compounds, e.g., representative compounds of the invention as well as the comparison compound, propanidid, were formulated in (1) 10% cremophor EL/90% D5W (5% dextrose in distilled water) (2) 10% Liposyn® III (Intravenous Fat Emulsion, containing (per 100 mL) 10 g soybean oil, 1.2 g egg phosphatides and […]), available from Abbott Laboratories, North Chicago, Ill.; and (3) injections (10) or (11) (as described in Example 16) with Miglyol® 810 (caprylic/capric glyceride). Typically, formulation (1) above was used for bolus dosing and formulations (2) or (3) for infusion dosing. Compounds of the invention and propanidid were synthesized as described in Examples 1-15 below. Propofol formulated in soybean oil, sold as Diprivan® injectable emulsion was obtained from AstraZeneca (Wilmington, Del.).
Administration by Infusion (Rats)
Rats (adult Sprague-Dawley) were placed in a perspex restrainer and anesthesia induced by bolus injection via the tail vein (0.15-1 mL/kg over approximately 3 seconds at a dose, estimated from the earlier bolus experiments, to produce anesthesia of approximately 2 minutes duration). Immediately after bolus administration, an infusion (with a duration of typically 20, 180 or 300 minutes), via the tail vein, was commenced (0.075-0.5 mL/kg/min at a half of the bolus dose/min). In some experiments, the initial infusion rate was maintained throughout, while in others, the rate was modified as necessary to maintain a consistent depth of anesthesia (as defined by moderate paw withdrawal in response to noxious pinch). Following completion of the infusion, duration of anesthesia (i.e. duration of loss of righting reflex) and behavioral recovery (i.e. duration of ataxia, sedation or lethargy following return of the righting reflex) was recorded.
Administration by infusion (rats): Recovery times following termination of administration by infusion in rats were determined for compound 1 and for the comparison compounds propofol and propanidid. The duration of the loss of righting reflex (in minutes) following termination of infusion is given as a function of duration of infusion in Table 2 below.

guinea pigs = assay: Test A: bolus administration (guinea pigs), loss of righting reflex; format: in vivo, guinea pig; settings: bolus via ear vein, calculated from dose response
Protocol: as §1
Bolus Administration (Guinea Pigs)
Adult male guinea pigs were dosed by bolus administration (0.1-0.25 mL volume) via an ear vein. Duration of loss of righting reflex was measured as described above for rats.
Bolus administration (guinea pigs): The potency of compound 1 was also tested in guinea pigs by the analogous procedure. The dose of compound 1 required to produce 2 minutes of loss of righting reflex in guinea pigs was calculated to be 8 mg/kg, as compared with a dose of 13 mg/kg for propanidid.

[1] = 20 minute Infusion via tail vein

SMILES: CCCOC(=O)Cc1ccc(OCC(=O)N(CC)CC)c(OCC)c1 [Compound 1, [4-[(N,N-Diethylcarbamoyl)methoxy]-3-ethoxyphenyl]acetic acid propyl ester]
- Duration of Loss of Righting Reflex Following Termination of Infusion (rats; [1]): 1.4 ± 0.1 min
- Duration of Loss of Righting Reflex Following Termination of Infusion (rats; 3 hour Infusion via tail vein): 1.7 ± 0.1 min
- Duration of Loss of Righting Reflex Following Termination of Infusion (rats; 5 hour Infusion via tail vein): 2.6 ± 1.0 min
- dose required to produce 2 minutes of loss of righting reflex (guinea pigs): 8 mg/kg

SMILES: CCCOC(=O)Cc1ccc(OCC(=O)N(CC)CC)c(OC)c1 [Propanidid, [4-[(N,N-diethylcarbamoyl)methoxy]-3-methoxyphenyl]acetic acid propyl ester]
- Duration of Loss of Righting Reflex Following Termination of Infusion (rats; [1]): 1.6 ± 0.2 min
- Duration of Loss of Righting Reflex Following Termination of Infusion (rats; 3 hour Infusion via tail vein): 1.4 ± 0.1 min
- dose required to produce 2 minutes of loss of righting reflex (guinea pigs): 13 mg/kg

SMILES: CC(C)c1cccc(C(C)C)c1O [Propofol, 2,6-diisopropylphenol]
- Duration of Loss of Righting Reflex Following Termination of Infusion (rats; [1]): 30.0 ± 2.9 min
- Duration of Loss of Righting Reflex Following Termination of Infusion (rats; 3 hour Infusion via tail vein): 47.8 ± 5.3 min
- Duration of Loss of Righting Reflex Following Termination of Infusion (rats; 5 hour Infusion via tail vein): 59.0 ± 1.4 min
